Experimental findings from patent US9232799B2, “N-[(het)arylethyl)] pyrazole(thio)carboxamides and their heterosubstituted analogues” (BAYER INTELLECTUAL PROPERTY GMBH, priority 2010, dated 2016) are described below.

One data set has as its system Alternaria solani. The data set is described as follows: In vivo preventive test on Alternaria solani (tomato). To be noted: 500 ppm of active ingredient, evaluated 7 days after inoculation. From the text:
One day after this treatment, the plants are inoculated with an aqueous spore suspension of Alternaria solani.

Data set [1] is described as follows: logP by HPLC on reversed-phase column (C 18), EEC Directive 79/831 Annex V.A8. The class given is physicochemical. How it is done: In table 1, the logP values were determined in accordance with EEC Directive 79/831 Annex V.A8 by HPLC (High Performance Liquid Chromatography) on a reversed-phase column (C 18), using the method described below: Temperature: 40° C.; […]

For another data set, the system named is Fusarium graminearum. As to the kind of experiment: microbe, parasite or virus in culture. The class given is cell-based. To be noted: 50 μM.
A further data set relates to Sphaerotheca fuliginea. As to the kind of experiment: In vivo preventive test on Sphaerotheca fuliginea (cucumber). As to conditions: 500 ppm of active ingredient, evaluated 7 days after inoculation. From the text: One day after this treatment, the plants are inoculated with an aqueous spore suspension of Sphaerotheca fuliginea.
For a further data set, the system named is Pyrenophora teres. As to the kind of experiment: In vivo preventive test on Pyrenophora teres (barley). To be noted: 500 ppm of active ingredient, evaluated 7-9 days after inoculation. An excerpt: One day after this treatment, the plants are inoculated with an aqueous spore suspension of Pyrenophora teres.
Another data set has as its system aflatoxines production. As to the kind of experiment: microbe, parasite or virus in culture. The class given is cell-based, Aspergillus parasiticus. As to conditions: 50 μM.

In general, logP refers to a log measure of how a compound divides between an organic and an aqueous phase. Turning to `Cn1nc(C(F)F)c(C(=O)NCC(C)(C)c2cc(Cl)ccc2Cl)c1Cl` [Example 101], the Efficacy was 100% in the data set with Alternaria solani, 83% with Sphaerotheca fuliginea and 70% in the data set with Pyrenophora teres. For the same compound, the logP in data set [1] is recorded as 3.89. Moreover, the “% Inhibition of fungal growth at 50 μM” value in the data set with Fusarium graminearum was 86%. Besides, the “% Inhibition of Aflatoxin at 50 μM” value in the data set with aflatoxines production was 100%.
For the compound `CC(Cc1ccccc1F)N(C(=S)c1c(C(F)F)nn(C)c1F)C1CC1` (centres unmarked) [Example 21], the Efficacy in the data set on Alternaria solani is listed as 95%; in the data set with Sphaerotheca fuliginea it was 100%; in the data set on Pyrenophora teres, 100%. Also, the lipophilicity (logP) in data set [1] came out at 4.01.
`CC(Cc1ccccc1Cl)NC(=S)c1c(C(F)F)nn(C)c1F` (centres unmarked) [Example 37]: the values for the Efficacy with Alternaria solani, in the data set with Sphaerotheca fuliginea and in the data set on Pyrenophora teres were 94%, 98% and 100%, respectively. The compound further gave a logP in data set [1] of 3.61. The “% Inhibition of fungal growth at 50 μM” value in the data set on Fusarium graminearum amounted to 78%. Moreover, the “% Inhibition of Aflatoxin at 50 μM” value with aflatoxines production stood at 94%.
For `COC(CNC(=S)c1c(C(F)F)nn(C)c1F)c1cc(Cl)cc(Cl)c1` (centres unmarked) [Example 110], the figures for the Efficacy in the data set on Alternaria solani, with Sphaerotheca fuliginea and in the data set with Pyrenophora teres were 80%, 75% and 100%, respectively. The compound further registered a logP in data set [1] of 4.19.
The matching figures for `Cn1nc(C(F)F)c(C(=O)NC(C)(C)Cc2ccc(Oc3ccccc3)cc2)c1F` [Example 150]: 95%, 100%, 78% and 4.19.
Consider `CC(Cc1ccc(Cl)cc1Cl)NC(=O)c1c(C(F)F)nn(C)c1Cl` (centres unmarked) [Example 68], for which the Efficacy in the data set with Alternaria solani came out at 95%; in the data set on Sphaerotheca fuliginea it was 99%; with Pyrenophora teres it was 100%. The compound further came in with a logP in data set [1] of 3.67. Besides, the “% Inhibition of fungal growth at 50 μM” value in the data set with Fusarium graminearum is 100%. Further, the “% Inhibition of Aflatoxin at 50 μM” value with aflatoxines production is recorded as 100%.
Regarding `CC(Cc1ccc(Oc2ccccc2)cc1)NC(=S)c1c(C(F)F)nn(C)c1F` (centres unmarked) [Example 156], the Efficacy in the data set on Alternaria solani amounted to 89%; with Sphaerotheca fuliginea, 93%; in the data set on Pyrenophora teres it was 100%. In addition, in data set [1], the logP was 4.29.
With `Cn1nc(C(F)F)c(C(=O)NC2CCCCC2c2ccccc2)c1Cl` (centres unmarked) [Example 215], the Efficacy was 78% in the data set on Alternaria solani, 93% in the data set with Sphaerotheca fuliginea and 100% with Pyrenophora teres. The compound also yielded a logP in data set [1] of 3.51.
In the case of `Cc1scc(CCNC(=O)c2c(C(F)F)nn(C)c2F)c1C` [Example 167], the Efficacy in the data set with Alternaria solani amounted to 100%; in the data set on Sphaerotheca fuliginea it was 90%; in the data set on Pyrenophora teres it was 100%. In data set [1], the logP was determined as 2.82. Moreover, in the data set on Fusarium graminearum, the “% Inhibition of fungal growth at 50 μM” value amounted to 100%. Moreover, the “% Inhibition of Aflatoxin at 50 μM” value in the data set with aflatoxines production stood at 100%.
As for `Cn1nc(C(F)F)c(C(=O)NC(C)(C)Cc2ccc(Oc3ccccc3)cc2)c1Cl` [Example 153], the values for the Efficacy with Alternaria solani, with Sphaerotheca fuliginea and in the data set on Pyrenophora teres were 95%, 93% and 80%, respectively. In data set [1], this compound had a logP of 4.39.
In turn, `Cn1nc(C(F)F)c(C(=O)N(C2CC2)C2CCCCC2c2ccc(Cl)cc2Cl)c1F` (centres unmarked) [Example 217] yielded a logP in data set [1] of 5.05. The same compound yielded an Efficacy in the data set with Sphaerotheca fuliginea of 99%.
With `CC(Cc1ccc(Cl)cc1Cl)NC(=S)c1c(C(F)F)nn(C)c1Cl` (centres unmarked) [Example 69], the Efficacy in the data set on Alternaria solani was found to be 94%; with Sphaerotheca fuliginea, 95%. In data set [1], this compound showed a logP of 4.29. The “% Inhibition of fungal growth at 50 μM” value with Fusarium graminearum came to 86%. In addition, the “% Inhibition of Aflatoxin at 50 μM” value in the data set on aflatoxines production turned out to be 100%.
As to `Cn1nc(C(F)F)c(C(=S)NCCc2ccc(Cl)cc2Cl)c1F` [Example 71], the Efficacy in the data set on Alternaria solani is reported as 94%; in the data set with Sphaerotheca fuliginea, 85%; in the data set on Pyrenophora teres it was 100%. The compound also registered a lipophilicity (logP) in data set [1] of 3.99.
The matching figures for `CC(Cc1ccccc1Cl)NC(=S)c1c(C(F)F)nn(C)c1Cl` (centres unmarked) [Example 38]: 89%, 85%, 100% and 3.72.
Consider `CC(Cc1cccc(Oc2ccccc2)c1)NC(=O)c1c(C(F)F)nn(C)c1F` (centres unmarked) [Example 146], for which the Efficacy was determined as 95% in the data set with Alternaria solani and 100% with Pyrenophora teres. This compound also came in with a logP in data set [1] of 3.64. In the data set on Fusarium graminearum, the “% Inhibition of fungal growth at 50 μM” value came to 83%. Besides, the “% Inhibition of Aflatoxin at 50 μM” value in the data set with aflatoxines production is recorded as 100%.
Regarding `Cn1nc(C(F)F)c(C(=O)NCCc2c(F)c(F)nc(F)c2F)c1F` [Example 208], the Efficacy with Alternaria solani is 95%; in the data set on Pyrenophora teres, 100%. In addition, the logP in data set [1] amounted to 2.44. In addition, in the data set on Fusarium graminearum, the “% Inhibition of fungal growth at 50 μM” value is recorded as 100%. In addition, in the data set on aflatoxines production, the “% Inhibition of Aflatoxin at 50 μM” value stood at 99%.
For `CN(CCc1ccccc1Cl)C(=O)c1c(C(F)F)nn(C)c1F` [Example 35], the Efficacy in the data set with Alternaria solani and in the data set with Pyrenophora teres was 100% throughout. Also, in data set [1], the logP came out at 2.76. For the same compound, in the data set with Fusarium graminearum, the “% Inhibition of fungal growth at 50 μM” value was 100%. Besides, the “% Inhibition of Aflatoxin at 50 μM” value with aflatoxines production is reported as 100%.
On to `Cn1nc(C(F)F)c(C(=O)NCCc2csc3c2CCCC3)c1Cl` [Example 169], for which the Efficacy is on record as 80% with Alternaria solani and 100% in the data set on Pyrenophora teres. In data set [1], the logP is reported as 3.52. Further, the “% Inhibition of fungal growth at 50 μM” value in the data set on Fusarium graminearum is reported as 75%. The “% Inhibition of Aflatoxin at 50 μM” value in the data set with aflatoxines production was determined as 91%.
The matching figures for `Cn1nc(C(F)F)c(C(=O)NC[Si](C)(C)c2cc(Cl)cc(Cl)c2)c1F` [Example 244]: 100%, 95%, 4.08, 100% and 100%.
The matching figures for `Cc1c(CCNC(=O)c2c(C(F)F)nn(C)c2F)sc2ccccc12` [Example 171]: 100%, 100%, 3.27, 93% and 100%.
On the same counts, the results for `Cn1nc(C(F)F)c(C(=O)NCC(c2cccs2)C(F)(F)F)c1F` (centres unmarked) [Example 161] are 95%, 100%, 2.75, 85% and 100%.
Turning to `CC(CNC(=O)c1c(C(F)F)nn(C)c1F)c1cccc(Cl)c1` (centres unmarked) [Example 51], the Efficacy with Alternaria solani and in the data set with Pyrenophora teres was 100% each time. This compound also had a logP in data set [1] of 3.02. The “% Inhibition of fungal growth at 50 μM” value with Fusarium graminearum is 100%. Moreover, the “% Inhibition of Aflatoxin at 50 μM” value with aflatoxines production is on record as 100%.
For `Cn1nc(C(F)F)c(C(=O)NCCc2cc(Cl)cc(Cl)c2)c1Cl` [Example 105], the Efficacy worked out at 95% with Alternaria solani and 94% with Pyrenophora teres. This compound also returned a logP in data set [1] of 3.42. In addition, the “% Inhibition of fungal growth at 50 μM” value in the data set with Fusarium graminearum worked out at 95%. In addition, the “% Inhibition of Aflatoxin at 50 μM” value in the data set with aflatoxines production was 100%.
For the compound `CC(CNC(=O)c1c(C(F)F)nn(C)c1Cl)c1ccc(C(F)(F)F)cc1` (centres unmarked) [Example 128], the Efficacy is 100% in the data set with Alternaria solani and 94% with Pyrenophora teres. In data set [1], this compound had a logP of 3.39. In the data set with Fusarium graminearum, the “% Inhibition of fungal growth at 50 μM” value was 82%. Further, in the data set on aflatoxines production, the “% Inhibition of Aflatoxin at 50 μM” value amounted to 100%.
